For eight molecules, IC50 and EC50 results are on record in patent US10981932B2, “Macrocyclic indole derivatives” (Bayer Aktiengesellschaft, priority 2016, dated 2021).

The IC50 is the concentration needed to halve the response being measured. What is called EC50 is the concentration giving half of the maximal effect. Higher therefore signals a need for much substance.

One assay addresses T1, BCL-2 (Homo sapiens, UniProt P10415).
T1 construct: BCL-2 (amino acids 1-211, C-terminal fused to a hexahistidine (6×His) tag); purchased BPS Bioscience (San Diego, Calif., USA); host or cells: E. coli
The assay can be described thus: Protein-protein interaction assay BCL-2/Bad BH3 peptide (BCL-2 assay), TR-FRET. The format is binding. The conditions noted are these: His-BCL-2 / Bad BH3-derived peptide, median. Here is the method: Protein-Protein Interaction Assay: BCL-2/Bad BH3 Peptide (BCL-2 Assay)
The dose-dependent inhibition by the compounds described in this invention of the interaction between BCL-2 and the BH3 domain of Bad (both human) was determined using a steady state binding competition assay with time-resolved fluorescence energy transfer (TR-FRET) readout. For that purpose BCL-2 (amino acids 1-211, C-terminal fused to a hexahistidine (6×His) tag and a synthetic Bad BH3-derived peptide of sequence Biotin-PEG2-PEG2-NLWAAQRYGRELRR-Nle-SDEFVDSFKK-amide (SEQ ID NO: 2) served as protein receptor and tracer ligand respectively. The recombinant BCL-2 protein (expressed in E. coli) was purchased from BPS Bioscience (San Diego, Calif., USA). The Bad BH3-derived peptide can be obtained from e.g. Biosyntan (Berlin, Germany).
In the assay 11 different concentrations of each compound (0.1 nM, 0.33 nM, 1.1 nM, 3.8 nM. 13 nM, 44 nM, 0.15 μM, 0.51 μM, 1.7 μM, 5.9 μM and 20 μM) were typically measured as duplicates in the same microtiter plate. For that, 100-fold concentrated DMSO solutions were prepared by serial dilutions (1:3.4) of a 2 mM stock solution in a clear, 384-well microtiter plate (Greiner Bio-One, Frickenhausen, Germany). From there, 50 nl were transferred in a dark test plate (Greiner Bio-One. Frickenhausen, Germany). The assay was initiated by addition of 2 μl of a 2,5-fold concentrated His-BCL-2 solution (usually for a 1 nM end concentration in 5 μl reaction volume) in aqueous assay buffer [50 mM Tris/HCl pH 7, 100 mM sodium chloride (NaCl), 50 mM potassium fluoride (KF), 0.005% Tween-20, 2 mM DTT, 0.1% bovine gamma globulin (BGG)] to the compounds in the assay plate. This was followed by a 10-minute incubation step at 22° C. for pre-equilibration of the putative complex between His-BCL-2 and the compounds.
The mixture was incubated in the dark for one hour at 22° C. and then overnight at 4° C. The formation of BCL-2/Bad complexes was determined by measuring the resonance energy transfer of the anti-His-Eu-cryptate antibody to the streptavidin-XL665 present in the reaction. For that purpose, the fluorescence emission at 620 nm and 665 nm after excitation at 330-350 nm was measured in a TR-FRET measuring instrument, for instance a Rubystar or a Pherastar (both from BMG Lab Technologies. Offenburg, Germany) or a Viewlux (Perkin-Elmer). The ratio of the emission at 665 nm and at 622 nm was used as indicator of the amount of BCL-2/Bad complexes present.
The resulting data (ratio) were normalized, taking 0% inhibition as the mean value of control measurements (usually 32 data points) where all reagents were included. In this case 50 nl DMSO were used instead of compounds. A 100% inhibition corresponded to the mean value of control measurements (usually 32 data points) where all reagents except BCL-2 were included. IC50 values were determined by regression analysis based on a 4 parameter equation (minimum, maximum, IC50, Hill; Y=Max+(Min−Max)/(1+(X/IC50)^Hill) using the Screener Software (Genedata).

The next assay deals with SUDHL10. Briefly: Induction of caspase-3/7 activity (Caspase-Glo 3/7), SUDHL10. The format is cell-based. The conditions noted are these: caspase-3/7 induction, SUDHL10 cells, 3 h treatment, median. Put shortly: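 DLBCL lines SUDHL5 and SUDHL10 treated with compounds for 3 h at 37 °C; caspase-3/7 activity read by Caspase-Glo 3/7 luminescence. Medium-only background subtracted; EC50 fitted with bottom fixed at 1 and top fixed at the reference compound's maximal induction.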

For the next assay, the target named is MCL-1 (Homo sapiens, UniProt Q07820). Briefly: Protein-protein interaction assay MCL-1/Noxa BH3 peptide (MCL-1 assay), TR-FRET. The assay is classed as binding. The conditions noted are these: MBP-MCL-1 / Noxa BH3-derived peptide, median. Put shortly:
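IC50 came from a 4-parameter fit of the normalized 665/620 nm TR-FRET ratio (anti-MBP Eu-cryptate/streptavidin-XL665). Compounds (0.1 nM–20 μM, duplicates) were preincubated 10 min at 22 °C with 1 nM MBP-MCL-1 in pH 7 Tris/NaCl/KF buffer, then read after 1 h at 22 °C plus overnight at 4 °C.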
A general note: In TR-FRET formats the signal depends on donor and acceptor labels being close together.

MCL-1, sequence (Q07820 whole entry): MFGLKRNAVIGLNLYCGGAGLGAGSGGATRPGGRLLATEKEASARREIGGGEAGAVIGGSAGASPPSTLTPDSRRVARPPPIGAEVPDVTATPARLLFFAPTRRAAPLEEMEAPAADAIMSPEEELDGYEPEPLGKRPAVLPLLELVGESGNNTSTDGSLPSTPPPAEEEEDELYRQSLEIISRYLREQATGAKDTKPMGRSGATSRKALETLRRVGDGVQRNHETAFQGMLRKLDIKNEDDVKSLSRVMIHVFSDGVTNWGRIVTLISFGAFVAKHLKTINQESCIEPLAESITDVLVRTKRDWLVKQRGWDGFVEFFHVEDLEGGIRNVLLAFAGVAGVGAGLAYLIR
T1 sequence (P10415 1-211): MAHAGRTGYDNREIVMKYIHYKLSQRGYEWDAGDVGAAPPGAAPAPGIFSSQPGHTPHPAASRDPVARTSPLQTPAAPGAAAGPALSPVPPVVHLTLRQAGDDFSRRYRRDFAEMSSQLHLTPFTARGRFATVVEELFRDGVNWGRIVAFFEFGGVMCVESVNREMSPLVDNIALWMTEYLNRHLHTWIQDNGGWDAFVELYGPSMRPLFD

Take `Cc1c2c(nn1C)COCCCCn1c(C(=O)O)c(CCCOc3cccc4ccccc34)c3cccc-2c31` (racemic) [Example 1-36, (rac)-2,3-dimethyl-7-[3-(naphthalen-1-yloxy)propyl]-2,10,11,12,13,15-hexahydropyrazolo[4′,3′:9,10][1,6]oxazacycloundecino[8,7,6-hi]indole-8-carboxylic Acid]: the values for the half-inhibitory concentration (IC50) at BCL-2 and against MCL-1 were more than 20 µM and 0.00328 µM, respectively. The molecule further gave a 50% effective concentration (EC50) in the assay on SUDHL10 (Homo sapiens, SU-DHL10, 3 h) of 7.51 µM.

Take `Cc1nn(C)c2c1-c1cccc3c(CCCOc4cccc5ccccc45)c(C(=O)O)n(c13)CCCCOCC2` (racemic) [Example 017, (rac)-1,3-dimethyl-7-[3-(1-naphthyloxy)propyl]-10,11,12,13,15,16-hexahydro-1H-pyrazolo[4′,3′:9,10][1,6]oxazacyclododecino[8,7,6-hi]indole-8-carboxylic Acid]: the IC50 is more than 20 µM on BCL-2 and 0.00896 µM on MCL-1. Further, the EC50 was more than 33 µM in the assay on SUDHL10 (Homo sapiens, SU-DHL10, 3 h) and 31.9 µM in the assay on SUDHL10.

As for `Cc1ccc2c(CCCOc3cccc4c3CCCC4)c(C(=O)O)n3c2c1-c1c(C)nn(C)c1COCCCC3` (racemic) [Example 039, (rac)-1,3,4-trimethyl-7-[3-(5,6,7,8-tetrahydronaphthalen-1-yloxy)propyl]-110,11,12,13,15-hexahydropyrazolo[4′3′:9,10][1,6]oxazacycloundecino[8,7,6-hi]indole-8-carboxylic Acid], the IC50 is more than 20 µM against BCL-2 and 0.00501 µM against MCL-1. Besides, it took 24.8 µM to reach a half-maximal effect with SUDHL10 (Homo sapiens, SU-DHL10, 3 h) (EC50).

Consider `CC(C)c1c2c(nn1C)CN(C)CCCn1c(C(=O)O)c(CCCOc3cccc4ccccc34)c3cccc-2c31` (racemic) [Example 113, (rac)-7,10-dimethyl-1-[3-(naphthalen-1-yloxy)propyl]-11-(propan-2-yl)-4,5,6,7,8,10-hexahydropyrazolo[3′,4′:7,8][1,5]diazecino[9,10,1-hi]indole-2-carboxylic Acid], for which the 50% inhibitory concentration (IC50) against BCL-2 was more than 20 µM; against MCL-1, 0.0197 µM.

Turning to `CCc1c2c(nn1C)CN(C)CCCn1c(C(=O)O)c(CCCOc3cccc4ccccc34)c3cccc-2c31` (racemic) [Example 141, (rac)-11-ethyl-7,10-dimethyl-1-[3-(1-naphthyloxy)propyl]-4,5,6,7,8,10-hexahydropyrazolo[3′,4′:7,8][1,5]diazecino[9,10,1-hi]indole-2-carboxylic Acid], the IC50 on BCL-2 is more than 20 µM; against MCL-1 it was 0.00727 µM. This molecule also registered an EC50 in the assay on SUDHL10 (Homo sapiens, SU-DHL10, 3 h) of 7.3 µM.

As to `CCc1c2c(nn1C)CN(C)CCCn1c(C(=O)O)c(CCCOc3cccc4ccccc34)c3ccc(C)c-2c31` (racemic) [Example 144, (rac)-11-ethyl-7,10,12-trimethyl-1-[3-(1-naphthyloxy)propyl]-4,5,6,7,8,10-hexahydropyrazolo[3′,4′:7,8][1,5]diazecino[9,10,1-hi]indole-2-carboxylic Acid], the results for the IC50 at BCL-2 and against MCL-1 were more than 20 µM and 0.00334 µM, respectively. Also, a half-maximal response in the assay with SUDHL10 (Homo sapiens, SU-DHL10, 3 h) (EC50) required 3.91 µM.

For `CCc1c2c(nn1C)COCCCCn1c(C(=O)O)c(CCCOc3cccc4ccccc34)c3ccc(C)c-2c31` (racemic) [Example 153, (rac)-3-Ethyl-2,4-dimethyl-7-[3-(1-naphthyloxy)propyl]-2,10,11,12,13,15-hexahydropyrazolo[4′,3′:9,10][1,6]oxazacycloundecino[8,7,6-hi]indole-8-carboxylic Acid], the IC50 was more than 20 µM at BCL-2 and 0.0048 µM against MCL-1. In the assay with SUDHL10 (Homo sapiens, SU-DHL10, 3 h), this molecule displayed an EC50 of 5.12 µM.

Consider `CC(C)OCc1nn(C)c2c1-c1cccc3c(CCCOc4cccc5ccccc45)c(C(=O)O)n(c13)CCCCN(C)C2` (single isomer, unassigned) [Example 1-74, 1,14-dimethyl-7-[3-(naphthalen-1-yloxy)propyl]-3-[(propan-2-yloxy)methyl]-10,11,12,13,14,15-hexahydro-1H-pyrazolo[3′,4′:8,9][1,6]diazacycloundecino[10,11,1-hi]indole-8-carboxylic Acid], for which the IC50 on BCL-2 was more than 20 µM; on MCL-1, 0.00479 µM. It took 20.3 µM to reach a half-maximal effect in the assay on SUDHL10 (Homo sapiens, SU-DHL10, 3 h) (EC50).
